According to US20050214886A1, “TNF modulation” (YEDA RESEARCH AND DEVELOPMENT CO. LTD., priority 1995, published 2005):

Test system: 26 kDa TNF molecules in HeLa-M9 cells
Assay: [32P] metabolic labeling and immunoprecipitation: phosphorylation of 26 kDa TNF
Assay type: cell-based, human
Conditions: preliminary experiments, data not shown
Source text: The intracellular region is the only part of the TNF molecule accessible for phosphorylation by cytoplasmic protein kinases. The specific kinases involved in TNF phosphorylation are not known, nor is it known if, and in what way, the activity of these kinases is subject to modulation by agents that affect TNF activity. Evidently, the phosphorylation observed in the HeLa-M9 cells, in which TNF was synthesized without stimulation, reflects the function of kinase(s) that constitutively act in these cells. On the other hand, the phosphorylation observed in the LPS-stimulated MM6 cells could involve effects of LPS activated protein kinases (Liu et al., 1994; Han et al., 1995). The serine at position −50 seems to be a suitable substrate for phosphorylation by protein kinase C (Kennelly and Krebs, 1991).
Labeling of cells with [^35S]Met or [^32P) orthophosphate was performed by incubation in Met-free or phosphate-free medium, supplemented with 5 or 10% FCS, that had been dialyzed against either PBS or 0.9% NaCl, respectively. […]
Immunoprecipitation was performed using sheep anti-TNF antiserum or, as a control, non-immune sheep serum, at a dilution of 1:200. […] The immunoprecipitated proteins were analyzed by SDS-PAGE under reducing conditions (12% acrylamide). […]

Which “increase of phosphorylation of the 26 kDa TNF molecules” value does the source give for `CCCCCCCCCCCCCC(=O)O[C@@H]1[C@@H](C)[C@@]2(O)[C@@H](C=C(CO)C[C@]3(O)C(=O)C(C)=C[C@@H]23)[C@@H]2C(C)(C)[C@]12OC(C)=O` [4β-phorbol-12-myristate-13-acetate] here?
Its value is “did not observe any increase of phosphorylation”.
